Values after ≈ are worked out from the molar mass of the structure shown.
Experiments:
Assay type in all cases: functional
Conditions in all cases: time 16-20 hrs
[1] = test system: Klebsiella pneumoniae; test: Antibacterial activity against Klebsiella pneumoniae ATCC 13883 incubated for 16 to 20 hrs by broth microdilution method
[2] = test system: Staphylococcus aureus; test: Antibacterial activity against Staphylococcus aureus ATCC 25923 incubated for 16 to 20 hrs by broth microdilution method
[3] = test system: Escherichia coli; test: Antibacterial activity against Escherichia coli ATCC 25922 incubated for 16 to 20 hrs by broth microdilution method
[4] = test system: Cronobacter sakazakii; test: Antibacterial activity against Cronobacter sakazakii ATCC 29544 incubated for 16 to 20 hrs by broth microdilution method

Row | Structure (SMILES) | MIC [1] [µg/mL] | MIC [2] [µg/mL] | MIC [3] [µg/mL] | MIC [4] [µg/mL]
1 | CC[C@H]1OC(=O)C[C@@H](O)[C@H](C)[C@@H](O[C@@H]2O[C@H](C)[C@@H](O)[C@H](N(C)C)[C@H]2O)[C@@H](CCN(Cc2ccc(N(C)C)cc2)Cc2cn(-c3cnc4ccccc4c3)nn2)C[C@@H](C)C(=O)/C=C/C(C)=C/[C@@H]1CN(CC)CC | 8 (≈ 8.04 µM) | 0.5 (≈ 0.502 µM) | 4 (≈ 4.02 µM) | 16 (≈ 16.1 µM)
2 | CC[C@H]1OC(=O)C[C@@H](O)[C@H](C)[C@@H](O[C@@H]2O[C@H](C)[C@@H](O)[C@H](N(C)C)[C@H]2O)[C@@H](CCN(Cc2ccc(C(F)(F)F)cc2)Cc2cn(-c3cnc4ccccc4c3)nn2)C[C@@H](C)C(=O)/C=C/C(C)=C/[C@@H]1CN(CC)CC | 8 (≈ 7.84 µM) | 1 (≈ 0.98 µM) | 4 (≈ 3.92 µM) | 16 (≈ 15.7 µM)
3 | CCCN(CCC)C[C@H]1/C=C(C)/C=C/C(=O)[C@H](C)C[C@H](CCN(C)Cc2cn(-c3cnc4ccccc4c3)nn2)[C@H](O[C@@H]2O[C@H](C)[C@@H](O)[C@H](N(C)C)[C@H]2O)[C@@H](C)[C@H](O)CC(=O)O[C@@H]1CC | 4 (≈ 4.42 µM) | 0.25 (≈ 0.276 µM) | 4 (≈ 4.42 µM) | 8 (≈ 8.85 µM)
4 | CC[C@H]1OC(=O)C[C@@H](O)[C@H](C)[C@@H](O[C@@H]2O[C@H](C)[C@@H](O)[C@H](N(C)C)[C@H]2O)[C@@H](CCN(Cc2ccccc2)Cc2cn(-c3cnc4ccccc4c3)nn2)C[C@@H](C)C(=O)/C=C/C(C)=C/[C@@H]1CN1CC(C)CC(C)C1 (stereo partly drawn) | 16 (≈ 16.1 µM) | 4 (≈ 4.03 µM) | 16 (≈ 16.1 µM) | 16 (≈ 16.1 µM)
5 | CC[C@H]1OC(=O)C[C@@H](O)[C@H](C)[C@@H](O[C@@H]2O[C@H](C)[C@@H](O)[C@H](N(C)C)[C@H]2O)[C@@H](CCN(Cc2cn(-c3cnc4ccccc4c3)nn2)Cc2cccs2)C[C@@H](C)C(=O)/C=C/C(C)=C/[C@@H]1CO | 16 (≈ 17.7 µM) | 0.125 (≈ 0.138 µM) | 16 (≈ 17.7 µM) | 32 (≈ 35.4 µM)
6 | CC[C@H]1OC(=O)C[C@@H](O)[C@H](C)[C@@H](O[C@@H]2O[C@H](C)[C@@H](O)[C@H](N(C)C)[C@H]2O)[C@@H](CCN(Cc2ccc(C(F)(F)F)cc2)Cc2cn(-c3cnc4ccccc4c3)nn2)C[C@@H](C)C(=O)/C=C/C(C)=C/[C@@H]1CI | 32 (≈ 29.8 µM) | 4 (≈ 3.72 µM) | 32 (≈ 29.8 µM) | 32 (≈ 29.8 µM)
7 | CCCCN(CCCC)C[C@H]1/C=C(C)/C=C/C(=O)[C@H](C)C[C@H](CCN(C)Cc2cn(-c3cnc4ccccc4c3)nn2)[C@H](O[C@@H]2O[C@H](C)[C@@H](O)[C@H](N(C)C)[C@H]2O)[C@@H](C)[C@H](O)CC(=O)O[C@@H]1CC | 16 (≈ 17.2 µM) | 0.5 (≈ 0.536 µM) | 8 (≈ 8.58 µM) | 16 (≈ 17.2 µM)
8 | CC[C@H]1OC(=O)C[C@@H](O)[C@H](C)[C@@H](O[C@@H]2O[C@H](C)[C@@H](O)[C@H](N(C)C)[C@H]2O)[C@@H](CCN(C)Cc2cn(-c3cnc4ccccc4c3)nn2)C[C@@H](C)C(=O)/C=C/C(C)=C/[C@@H]1CN(C)CC | 8 (≈ 9.28 µM) | 1 (≈ 1.16 µM) | 8 (≈ 9.28 µM) | 8 (≈ 9.28 µM)
9 | CC[C@H]1OC(=O)C[C@@H](O)[C@H](C)[C@@H](O[C@@H]2O[C@H](C)[C@@H](O)[C@H](N(C)C)[C@H]2O)[C@@H](CCN(C)Cc2cn(-c3cnc4ccccc4c3)nn2)C[C@@H](C)C(=O)/C=C/C(C)=C/[C@@H]1CI | 32 (≈ 34.4 µM) | 2 (≈ 2.15 µM) | 16 (≈ 17.2 µM) | 32 (≈ 34.4 µM)
10 | CC[C@H]1OC(=O)C[C@@H](O)[C@H](C)[C@@H](O[C@@H]2O[C@H](C)[C@@H](O)[C@H](N(C)C)[C@H]2O)[C@@H](CCN(Cc2ccc(O)c(OC)c2)Cc2cn(-c3cnc4ccccc4c3)nn2)C[C@@H](C)C(=O)/C=C/C(C)=C/[C@@H]1CO | 16 (≈ 17 µM) | 0.5 (≈ 0.53 µM) | 16 (≈ 17 µM) | 16 (≈ 17 µM)
11 | CC[C@H]1OC(=O)C[C@@H](O)[C@H](C)[C@@H](O[C@@H]2O[C@H](C)[C@@H](O)[C@H](N(C)C)[C@H]2O)[C@@H](CCN(Cc2ccc(OC)cc2)Cc2cn(-c3cnc4ccccc4c3)nn2)C[C@@H](C)C(=O)/C=C/C(C)=C/[C@@H]1CN(CC)CC | 8 (≈ 8.14 µM) | 0.5 (≈ 0.509 µM) | 4 (≈ 4.07 µM) | 16 (≈ 16.3 µM)
12 | CC[C@H]1OC(=O)C[C@@H](O)[C@H](C)[C@@H](O[C@@H]2O[C@H](C)[C@@H](O)[C@H](N(C)C)[C@H]2O)[C@@H](CCN(Cc2ccc(N(C)C)cc2)Cc2cn(-c3cnc4ccccc4c3)nn2)C[C@@H](C)C(=O)/C=C/C(C)=C/[C@@H]1CN1CCC(O)CC1 | 16 (≈ 15.6 µM) | 2 (≈ 1.95 µM) | 16 (≈ 15.6 µM) | 32 (≈ 31.3 µM)
13 | CC[C@H]1OC(=O)C[C@@H](O)[C@H](C)[C@@H](O[C@@H]2O[C@H](C)[C@@H](O)[C@H](N(C)C)[C@H]2O)[C@@H](CCN(Cc2ccc(C(C)C)cc2)Cc2cn(-c3cnc4ccccc4c3)nn2)C[C@@H](C)C(=O)/C=C/C(C)=C/[C@@H]1CO | 32 (≈ 34.1 µM) | 0.5 (≈ 0.532 µM) | 16 (≈ 17 µM) | 32 (≈ 34.1 µM)
14 | CC[C@H]1OC(=O)C[C@@H](O)[C@H](C)[C@@H](O[C@@H]2O[C@H](C)[C@@H](O)[C@H](N(C)C)[C@H]2O)[C@@H](CCN(Cc2cn(-c3cnc4ccccc4c3)nn2)Cc2ccco2)C[C@@H](C)C(=O)/C=C/C(C)=C/[C@@H]1CN1CCCCCCC1 | 8 (≈ 8.14 µM) | 1 (≈ 1.02 µM) | 4 (≈ 4.07 µM) | 32 (≈ 32.6 µM)
15 | CC[C@H]1OC(=O)C[C@@H](O)[C@H](C)[C@@H](O[C@@H]2O[C@H](C)[C@@H](O)[C@H](N(C)C)[C@H]2O)[C@@H](CCN(Cc2ccc(C(F)(F)F)cc2)Cc2cn(-c3cnc4ccccc4c3)nn2)C[C@@H](C)C(=O)/C=C/C(C)=C/[C@@H]1CN1CCCCC1 | 16 (≈ 15.5 µM) | 1 (≈ 0.969 µM) | 8 (≈ 7.75 µM) | 16 (≈ 15.5 µM)
16 | CC[C@H]1OC(=O)C[C@@H](O)[C@H](C)[C@@H](O[C@@H]2O[C@H](C)[C@@H](O)[C@H](N(C)C)[C@H]2O)[C@@H](CCN(Cc2ccc(Br)cc2)Cc2cn(-c3cnc4ccccc4c3)nn2)C[C@@H](C)C(=O)/C=C/C(C)=C/[C@@H]1CI | 32 (≈ 29.5 µM) | 4 (≈ 3.68 µM) | 32 (≈ 29.5 µM) | 16 (≈ 14.7 µM)
17 | CC[C@H]1OC(=O)C[C@@H](O)[C@H](C)[C@@H](O[C@@H]2O[C@H](C)[C@@H](O)[C@H](N(C)C)[C@H]2O)[C@@H](CCN(Cc2ccccc2)Cc2cn(-c3cnc4ccccc4c3)nn2)C[C@@H](C)C(=O)/C=C/C(C)=C/[C@@H]1CN(CC)CC | 8 (≈ 8.4 µM) | 0.25 (≈ 0.263 µM) | 8 (≈ 8.4 µM) | 8 (≈ 8.4 µM)
18 | CC[C@H]1OC(=O)C[C@@H](O)[C@H](C)[C@@H](O[C@@H]2O[C@H](C)[C@@H](O)[C@H](N(C)C)[C@H]2O)[C@@H](CCN(Cc2ccc(OC)cc2)Cc2cn(-c3cnc4ccccc4c3)nn2)C[C@@H](C)C(=O)/C=C/C(C)=C/[C@@H]1CN1CC(C)CC(C)C1 (stereo partly drawn) | 16 (≈ 15.7 µM) | 2 (≈ 1.96 µM) | 16 (≈ 15.7 µM) | 32 (≈ 31.3 µM)
19 | CC[C@H]1OC(=O)C[C@@H](O)[C@H](C)[C@@H](O[C@@H]2O[C@H](C)[C@@H](O)[C@H](N(C)C)[C@H]2O)[C@@H](CCN(Cc2ccc(OC)cc2)Cc2cn(-c3cnc4ccccc4c3)nn2)C[C@@H](C)C(=O)/C=C/C(C)=C/[C@@H]1CN1CCCCC1 | 8 (≈ 8.05 µM) | 0.5 (≈ 0.503 µM) | 4 (≈ 4.02 µM) | 16 (≈ 16.1 µM)
20 | CC[C@H]1OC(=O)C[C@@H](O)[C@H](C)[C@@H](O[C@@H]2O[C@H](C)[C@@H](O)[C@H](N(C)C)[C@H]2O)[C@@H](CCN(Cc2cn(-c3cnc4ccccc4c3)nn2)Cc2ccco2)C[C@@H](C)C(=O)/C=C/C(C)=C/[C@@H]1CN1CCCCC1 | 32 (≈ 33.5 µM) | 0.25 (≈ 0.262 µM) | 8 (≈ 8.38 µM) | 32 (≈ 33.5 µM)
21 | CC[C@H]1OC(=O)C[C@@H](O)[C@H](C)[C@@H](O[C@@H]2O[C@H](C)[C@@H](O)[C@H](N(C)C)[C@H]2O)[C@@H](CCN(Cc2cn(-c3cnc4ccccc4c3)nn2)Cc2ccco2)C[C@@H](C)C(=O)/C=C/C(C)=C/[C@@H]1CN(C)C | 8 (≈ 8.75 µM) | 0.5 (≈ 0.547 µM) | 4 (≈ 4.38 µM) | 16 (≈ 17.5 µM)
22 | CC[C@H]1OC(=O)C[C@@H](O)[C@H](C)[C@@H](O[C@@H]2O[C@H](C)[C@@H](O)[C@H](N(C)C)[C@H]2O)[C@@H](CCN(Cc2ccc(OC)cc2)Cc2cn(-c3cnc4ccccc4c3)nn2)C[C@@H](C)C(=O)/C=C/C(C)=C/[C@@H]1CN(C)C | 8 (≈ 8.38 µM) | 1 (≈ 1.05 µM) | 8 (≈ 8.38 µM) | 32 (≈ 33.5 µM)
23 | CC[C@H]1OC(=O)C[C@@H](O)[C@H](C)[C@@H](O[C@@H]2O[C@H](C)[C@@H](O)[C@H](N(C)C)[C@H]2O)[C@@H](CCN(Cc2ccccc2)Cc2cn(-c3cnc4ccccc4c3)nn2)C[C@@H](C)C(=O)/C=C/C(C)=C/[C@@H]1CN1CCCCC1 | 8 (≈ 8.3 µM) | 1 (≈ 1.04 µM) | 8 (≈ 8.3 µM) | 8 (≈ 8.3 µM)
24 | CC[C@H]1OC(=O)C[C@@H](O)[C@H](C)[C@@H](O[C@@H]2O[C@H](C)[C@@H](O)[C@H](N(C)C)[C@H]2O)[C@@H](CCN(Cc2ccc(C(F)(F)F)cc2)Cc2cn(-c3cnc4ccccc4c3)nn2)C[C@@H](C)C(=O)/C=C/C(C)=C/[C@@H]1CO | 32 (≈ 33.2 µM) | 0.25 (≈ 0.259 µM) | 8 (≈ 8.29 µM) | 16 (≈ 16.6 µM)
25 | CC[C@H]1OC(=O)C[C@@H](O)[C@H](C)[C@@H](O[C@@H]2O[C@H](C)[C@@H](O)[C@H](N(C)C)[C@H]2O)[C@@H](CCN(Cc2cn(-c3cnc4ccccc4c3)nn2)Cc2ccco2)C[C@@H](C)C(=O)/C=C/C(C)=C/[C@@H]1CO | 16 (≈ 18 µM) | 0.125 (≈ 0.141 µM) | 8 (≈ 9.02 µM) | 32 (≈ 36.1 µM)
26 | CC[C@H]1OC(=O)C[C@@H](O)[C@H](C)[C@@H](O[C@@H]2O[C@H](C)[C@@H](O)[C@H](N(C)C)[C@H]2O)[C@@H](CCN(Cc2ccc(N(C)C)cc2)Cc2cn(-c3cnc4ccccc4c3)nn2)C[C@@H](C)C(=O)/C=C/C(C)=C/[C@@H]1CN1CC(C)CC(C)C1 (stereo partly drawn) | 32 (≈ 30.9 µM) | 2 (≈ 1.93 µM) | 8 (≈ 7.73 µM) | 32 (≈ 30.9 µM)
27 | CC[C@H]1OC(=O)C[C@@H](O)[C@H](C)[C@@H](O[C@@H]2O[C@H](C)[C@@H](O)[C@H](N(C)C)[C@H]2O)[C@@H](CCN(Cc2ccccc2)Cc2cn(-c3cnc4ccccc4c3)nn2)C[C@@H](C)C(=O)/C=C/C(C)=C/[C@@H]1CN1CCC(O)CC1 | 16 (≈ 16.3 µM) | 2 (≈ 2.04 µM) | 16 (≈ 16.3 µM) | 16 (≈ 16.3 µM)
